Measured values published in patent US20210244720A1, “Therapeutic Tyrosine Kinase Inhibitors for Relapsing Multiple Sclerosis (RMS)” (Genzyme Corporation, priority 2020, published 2021).

Key:
CYP2C8 = molecular target: T1, CYP2C8 (Homo sapiens, UniProt P10632); assay: Preclinical drug metabolism studies, CYP2C8; type: in vitro ADME
T1 sequence (P10632 1-490): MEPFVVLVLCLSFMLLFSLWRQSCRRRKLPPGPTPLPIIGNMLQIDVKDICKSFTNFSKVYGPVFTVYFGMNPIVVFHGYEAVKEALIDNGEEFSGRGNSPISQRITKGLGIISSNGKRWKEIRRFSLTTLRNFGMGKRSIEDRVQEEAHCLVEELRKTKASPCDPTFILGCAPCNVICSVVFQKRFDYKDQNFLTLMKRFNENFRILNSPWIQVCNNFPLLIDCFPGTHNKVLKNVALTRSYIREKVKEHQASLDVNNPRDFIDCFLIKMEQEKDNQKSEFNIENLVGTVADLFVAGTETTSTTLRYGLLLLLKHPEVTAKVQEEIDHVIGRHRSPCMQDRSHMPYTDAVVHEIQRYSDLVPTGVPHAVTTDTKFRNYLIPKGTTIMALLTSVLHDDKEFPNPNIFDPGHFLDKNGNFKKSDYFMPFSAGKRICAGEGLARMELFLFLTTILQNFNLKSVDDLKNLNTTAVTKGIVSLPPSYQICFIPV
From the text: See Table 12 for the list of drugs not to be used.

[1] = test system: RGS1 and BTK-dependent gene signature in primary mouse microglial cells; conditions: 2.5 μM, IgG 50 μg/mL, 24 h, FPKM
From the text: Primary cultures of microglia were obtained from brains of C57BL/6 postnatal mice. The mice were anesthetized with CO2 and subsequently decapitated with sterilized scissors. Brains were harvested and meninges were removed. The brains were placed in ice cold complete DMEM/F12 medium and kept on ice until processing.
The brains were removed from the medium by filtering through a 40 μm cell strainer. […] The dissociation reaction was quenched with an equal volume of complete DMEM/F12. The tissue was centrifuged at 300×g for 7 minutes. The tissue pellet was washed 3 times with complete DMEM/F12, centrifuged at 300×g for 7 minutes. After the final wash, tissue pellet was re-suspended in complete DMEM/F12 (˜1 mL/brain), triturated until no chunks are visible, then filtered through a 70 μm cell strainer. […]
The single cell suspensions were filtered through 70 μm cell strainers, centrifuged at 200×g for 6 minutes, and re-suspended at 1×10^8 cells/mL in separation media. […] After the last wash, the labeled CD11b+ microglia cells were resuspended in serum free NbActiv1 media, counted and re-suspended at the desired concentration. […]
Analysis of the RNASeq library data was conducted within Omicsoft's Array Studio platform following a standard RNAseq protocol. In general, the sequencing reads were quality checked and the samples were mapped to the mouse mm10 reference genome using the ENSEMBL.R89 gene model. […]

[2] = test system: participants with relapsing multiple sclerosis (RMS); assay: Phase 2b dose-finding study in RMS: brain MRI lesion counts; conditions: for New Gd-enhancing T1-hyperintense lesions: patients with 0 lesions, % / New Gd-enhancing T1-hyperintense lesions: patients with 1 lesion, % / New Gd-enhancing T1-hyperintense lesions: patients with 2 lesions, % / New Gd-enhancing T1-hyperintense lesions: patients with >=3 lesions, % / New or enlarging T2 lesions: patients with 0 lesions, % / New or enlarging T2 lesions: patients with 1 lesion, % / New or enlarging T2 lesions: patients with 2 lesions, % / New or enlarging T2 lesions: patients with >=3 lesions, % / Total Gd-enhancing T1-hyperintense lesions: patients with 0 lesions, % / Total Gd-enhancing T1-hyperintense lesions: patients with 1 lesion, % / Total Gd-enhancing T1-hyperintense lesions: patients with 2 lesions, % / Total Gd-enhancing T1-hyperintense lesions: patients with >=3 lesions, %: after 12 weeks
Protocol: People diagnosed with RMS are eligible for enrollment as long as they meet all inclusion and no exclusion criteria.
Cranial (brain) MRI with and without Gd contrast is performed. Basic MRIs are performed for all participants at all study sites and consist of T2- and T1-weighted sequences without and with Gd contrast.
New T1 Gd-enhancing hyperintense and new and enlarging T2 lesions are evaluated at each visit as per the SoA (Table 1), comparing lesion count to that from the previous MRI scan. Unless specified otherwise, the baseline brain MRI is used as the reference to assess all MRI-derived endpoints. The baseline MRI is the last MRI performed before the randomization visit. Standardized endpoint evaluation is assured by central review of brain MRI scans. Blinded central review is performed for all MRI-derived endpoints. Magnetic resonance imaging reviewers are blinded to treatment assignments and to other participant data.
The first step of this procedure tests for an efficacy signal (compared to the null hypothesis of a flat, no dose-response curve) in a procedure that controls the type 1 error. […] The second step is the Dose estimation of the dose-response curve, provided that an efficacy signal is established in the first step.
The 4-week post-randomization placebo data from Cohort 2 (i.e., Week 4 data from Cohort 2) is utilized as the placebo data at Week 12 in analysis, under the assumption of a constant rate of Gd-enhancing T1-hyperintense lesion formation if participants would be receiving placebo over 12 weeks. Participants in Cohort 2 contribute to the placebo data (at Week 4) as well as the data for 4 BTK inhibitor doses (at Week 16). […] If step 1 yields significant results, the best fitting model from the 6 predefined candidate models is chosen using the generalized Akaike information criterion (AIC).
The first step of this procedure tested for an efficacy signal (compared to the null hypothesis of a flat, no dose-response curve) in a procedure that controls the type 1 error.
The MRI assessments were excluded from the analyses if the participant was receiving systemic corticosteroids within the 30 days prior to the MRI assessment date. The 4-week post-randomization placebo data from Cohort 2 (i.e., Week 4 data from Cohort 2) was utilized as the placebo data at Week 12 in analysis under the assumption of a constant rate of Gd-enhancing T1-hyperintense lesion formation if participants were to receive placebo over 12 weeks. Participants in Cohort 2 contributed to the placebo data (at Week 4) as well as the data for 4 BTK inhibitor doses (at Week 16). The 4-week placebo run-out data from Cohort 1 was not included in the analysis. […] Test statistics and adjusted p-values were provided for all 6 candidate models.
For each secondary endpoint, a similar negative binomial model and the MCP-Mod procedure were used. As it is reasonable to assume a constant rate of lesion formation over 12 weeks under placebo treatment, the same approach as that utilized for the primary endpoint was used, i.e., using the Week 4 data in Cohort 2 as the Week 12 placebo data while accounting for within-participant correlation. Descriptive summary statistics over time were provided for each of the 4 BTK inhibitor dose groups.

RGS1 mRNA in brain = assay: In vivo mouse study, brain RGS1 Real-time PCR; conditions: naive mice, oral, once a day for 5 days, 0.6, 6, and 24 mg/kg
Protocol: Mice were sacrificed on day 5, 1 h post-final dose, and PBS perfused before brain was isolated. RNA was isolated from brain using the Rneasy Lipid tissue RNA isolation kid (Qiagen). RGS1 was quantified using Real-time PCR and Taqman probe (FIG. 6; one-way ANOVA, **p<0.01).

C=CC(=O)N1CCC[C@@H](n2c(=O)n(-c3ccc(Oc4ccccc4)cc3)c3c(N)nccc32)C1 [the BTK inhibitor, (R)-1-(1-acryloylpiperidin-3-yl)-4-amino-3-(4-phenoxyphenyl)-1H-imidazo[4,5-c]pyridin-2(3H)-one]
CYP2C8 metabolism (CYP2C8): substrate
RGS1 mRNA expression upregulated with IgG treatment [1]: blocked
New Gd-enhancing T1-hyperintense lesions: patients with 0 lesions, % ([2]; 5 mg daily): (71.0) %
New Gd-enhancing T1-hyperintense lesions: patients with 1 lesion, % ([2]; 5 mg daily): (6.5) %
New Gd-enhancing T1-hyperintense lesions: patients with 2 lesions, % ([2]; 5 mg daily): (9.7) %
New Gd-enhancing T1-hyperintense lesions: patients with >=3 lesions, % ([2]; 5 mg daily): (12.9) %
New or enlarging T2 lesions: patients with 0 lesions, % ([2]; 5 mg daily): (61.3) %
New or enlarging T2 lesions: patients with 1 lesion, % ([2]; 5 mg daily): (9.7) %
New or enlarging T2 lesions: patients with 2 lesions, % ([2]; 5 mg daily): (12.9) %
New or enlarging T2 lesions: patients with >=3 lesions, % ([2]; 5 mg daily): (16.1) %
Total Gd-enhancing T1-hyperintense lesions: patients with 0 lesions, % ([2]; 5 mg daily): (64.5) %
Total Gd-enhancing T1-hyperintense lesions: patients with 1 lesion, % ([2]; 5 mg daily): (12.9) %
Total Gd-enhancing T1-hyperintense lesions: patients with 2 lesions, % ([2]; 5 mg daily): (6.5) %
Total Gd-enhancing T1-hyperintense lesions: patients with >=3 lesions, % ([2]; 5 mg daily): (16.1) %
New Gd-enhancing T1-hyperintense lesions: patients with 0 lesions, % ([2]; 15 mg daily): (67.7) %
New Gd-enhancing T1-hyperintense lesions: patients with 1 lesion, % ([2]; 15 mg daily): (16.1) %
New Gd-enhancing T1-hyperintense lesions: patients with 2 lesions, % ([2]; 15 mg daily): (3.2) %
New Gd-enhancing T1-hyperintense lesions: patients with >=3 lesions, % ([2]; 15 mg daily): (12.9) %
New or enlarging T2 lesions: patients with 0 lesions, % ([2]; 15 mg daily): (48.4) %
New or enlarging T2 lesions: patients with 1 lesion, % ([2]; 15 mg daily): (22.6) %
New or enlarging T2 lesions: patients with 2 lesions, % ([2]; 15 mg daily): (9.7) %
New or enlarging T2 lesions: patients with >=3 lesions, % ([2]; 15 mg daily): (19.4) %
Total Gd-enhancing T1-hyperintense lesions: patients with 0 lesions, % ([2]; 15 mg daily): (64.5) %
Total Gd-enhancing T1-hyperintense lesions: patients with 1 lesion, % ([2]; 15 mg daily): (19.4) %
Total Gd-enhancing T1-hyperintense lesions: patients with >=3 lesions, % ([2]; 15 mg daily): (16.1) %
New Gd-enhancing T1-hyperintense lesions: patients with 0 lesions, % ([2]; 30 mg daily): (81.8) %
New Gd-enhancing T1-hyperintense lesions: patients with 1 lesion, % ([2]; 30 mg daily): (12.1) %
New Gd-enhancing T1-hyperintense lesions: patients with 2 lesions, % ([2]; 30 mg daily): (3.0) %
New Gd-enhancing T1-hyperintense lesions: patients with >=3 lesions, % ([2]; 30 mg daily): (3.0) %
New or enlarging T2 lesions: patients with 0 lesions, % ([2]; 30 mg daily): (72.7) %
New or enlarging T2 lesions: patients with 1 lesion, % ([2]; 30 mg daily): (15.2) %
New or enlarging T2 lesions: patients with 2 lesions, % ([2]; 30 mg daily): (3.0) %
New or enlarging T2 lesions: patients with >=3 lesions, % ([2]; 30 mg daily): (9.1) %
Total Gd-enhancing T1-hyperintense lesions: patients with 0 lesions, % ([2]; 30 mg daily): (75.8) %
Total Gd-enhancing T1-hyperintense lesions: patients with 1 lesion, % ([2]; 30 mg daily): (12.1) %
Total Gd-enhancing T1-hyperintense lesions: patients with 2 lesions, % ([2]; 30 mg daily): (6.1) %
Total Gd-enhancing T1-hyperintense lesions: patients with >=3 lesions, % ([2]; 30 mg daily): (6.1) %
New Gd-enhancing T1-hyperintense lesions: patients with 0 lesions, % ([2]; 60 mg daily): (90.3) %
New Gd-enhancing T1-hyperintense lesions: patients with 1 lesion, % ([2]; 60 mg daily): (6.5) %
New Gd-enhancing T1-hyperintense lesions: patients with 2 lesions, % ([2]; 60 mg daily): (3.2) %
New or enlarging T2 lesions: patients with 0 lesions, % ([2]; 60 mg daily): (87.1) %
New or enlarging T2 lesions: patients with 1 lesion, % ([2]; 60 mg daily): (3.2) %
New or enlarging T2 lesions: patients with 2 lesions, % ([2]; 60 mg daily): (9.7) %
Total Gd-enhancing T1-hyperintense lesions: patients with 0 lesions, % ([2]; 60 mg daily): (87.1) %
Total Gd-enhancing T1-hyperintense lesions: patients with 1 lesion, % ([2]; 60 mg daily): (3.2) %
Total Gd-enhancing T1-hyperintense lesions: patients with 2 lesions, % ([2]; 60 mg daily): (6.5) %
Total Gd-enhancing T1-hyperintense lesions: patients with >=3 lesions, % ([2]; 60 mg daily): (3.2) %
dose-response relationship, reduction in number of new active Gd-enhancing T1-hyperintense brain lesions ([2]; 5-60 mg once daily, 12 weeks): demonstrating a dose-response relationship
new Gd-enhancing T1-hyperintense lesions in patients with higher AUC ([2]; patients with higher exposure): very few or no new Gd-enhancing T1-hyperintense lesions
RGS1 mRNA expression in brain (RGS1 mRNA in brain): reduction of RGS1 mRNA expression was observed
